This is an account of results in ChEMBL document CHEMBL5214900, “Design, Synthesis, and Biological Evaluation of Membrane-Active Bakuchiol Derivatives as Effective Broad-Spectrum Antibacterial Agents” (J Med Chem, 2021).

One may read the MIC as the lowest concentration that inhibits growth of the organism. Usually pKa stands for the pH at which an ionisable group is half protonated. A lower pKa goes with a group that gives up its proton readily. Broadly, the HC50 is the concentration giving 50% haemolysis.

For series [1], the system named is Pseudomonas aeruginosa. In words: Antibacterial activity against Pseudomonas aeruginosa ATCC 9027 in C57BL/6 mouse model of bacterial keratitis assessed as log reduction in number of viable bacterial colonies in infected cornea at 3 mg/ml, TOP administered 4 times a day for 3 consecutive days. Type of series: functional. As to conditions: time 3 day.
Series [2] has as its system Escherichia coli. The experiment in a line: Antibacterial activity against Escherichia coli ATCC 25922 assessed as inhibition of bacterial growth incubated for 24 hrs by CLSI based broth dilution method. The format is functional. (In general: In broth dilution the organism is exposed to a series of concentrations in liquid medium.)
For series [3], the system named is Staphylococcus aureus. In words: Antibacterial activity against methicillin-resistant Staphylococcus aureus NCTC10442 assessed as inhibition of bacterial growth incubated for 24 hrs by CLSI based broth dilution method. The format is functional.
Series [4] relates to Staphylococcus aureus. In words: Antibacterial activity against methicillin-resistant Staphylococcus aureus N315 assessed as inhibition of bacterial growth incubated for 24 hrs by CLSI based broth dilution method. Type of series: functional.
Series [5] deals with Staphylococcus aureus. The experiment in a line: Antibacterial activity against Staphylococcus aureus ATCC 29213 assessed as inhibition of bacterial growth incubated for 24 hrs by CLSI based broth dilution method. The format is functional.
The nature of series [6]: Dissociation constant, pKa of compound by potentiometric titration method. The format is physicochemical.
Series [7] can be described thus: Hemolytic activity in rabbit RBC measured after 1 hrs by multimode reader assay. The format is toxicity, cell-based, Oryctolagus cuniculus, Erythrocyte. To be noted: rabbit red blood cells (erythrocytes).
In series [8] the test system is Escherichia coli. In words: Induction of drug resistance in Escherichia coli ATCC 25922 assessed as fold change in MIC measured after 19 passages by CLSI based broth dilution method. Type of series: functional.
For series [9], the system named is Escherichia coli. The experiment in a line: Bactericidal activity against Escherichia coli ATCC 25922 assessed as log reduction in viable bacteria at 8 times MIC measured after 2 hrs by time-killing assay. The format is functional.
Series [10] relates to Staphylococcus aureus. In words: Induction of drug resistance in Staphylococcus aureus ATCC 29213 assessed as fold change in MIC measured after 19 passages by CLSI based broth dilution method. The format is functional.
Series [11] concerns Acinetobacter baumannii. In words: Antibacterial activity against Acinetobacter baumannii R2889 assessed as inhibition of bacterial growth incubated for 24 hrs by CLSI based broth dilution method. The format is functional.
For series [12], the system named is Staphylococcus aureus. In words: Antibacterial activity against Staphylococcus aureus ATCC 29213 assessed as fold increase in MIC incubated for 24 hrs in presence of 4.5 mM K+ by CLSI based broth dilution method. The format is functional.
Series [13] relates to Escherichia coli. The experiment in a line: Antibacterial activity against Escherichia coli ATCC 25922 assessed as fold increase in MIC incubated for 24 hrs in presence of 140 mM Na+ by CLSI based broth dilution method. The format is functional.
For series [14], the system named is Escherichia coli. The experiment in a line: Antibacterial activity against Escherichia coli ATCC 25922 assessed as fold increase in MIC incubated for 24 hrs in presence of 4.5 mM K+ by CLSI based broth dilution method. Type of series: functional.
In series [15] the test system is Staphylococcus aureus. The experiment in a line: Antibacterial activity against Staphylococcus aureus ATCC 29213 assessed as fold increase in MIC incubated for 24 hrs in presence of 1 mM Mg2+ by CLSI based broth dilution method. Type of series: functional.
For series [16], the system named is Staphylococcus aureus. The experiment in a line: Antibacterial activity against Staphylococcus aureus NCTC10442 assessed as fold increase in MIC incubated for 24 hrs in presence of 140 mM Na+ by CLSI based broth dilution method. The format is functional.
The test system of series [17] is Klebsiella pneumoniae. The experiment in a line: Antibacterial activity against Klebsiella pneumoniae ATCC 10031 assessed as inhibition of bacterial growth incubated for 24 hrs by CLSI based broth dilution method. Type of series: functional.
Series [18] deals with Staphylococcus aureus. In words: Antibacterial activity against Staphylococcus aureus NCTC10442 assessed as fold increase in MIC incubated for 24 hrs in presence of 4.5 mM K+ by CLSI based broth dilution method. The format is functional.
Series [19] deals with Escherichia coli. The experiment in a line: Antibacterial activity against Escherichia coli ATCC 25922 assessed as fold increase in MIC incubated for 24 hrs in presence of 2.5 mM Ca2+ by CLSI based broth dilution method. The format is functional.
The subject of series [20] is Staphylococcus aureus. The experiment in a line: Antibacterial activity against Staphylococcus aureus NCTC10442 assessed as fold increase in MIC incubated for 24 hrs in presence of 2.5 mM Ca2+ by CLSI based broth dilution method. The format is functional.
In series [21] the test system is Staphylococcus aureus. The experiment in a line: Antibacterial activity against Staphylococcus aureus ATCC 29213 assessed as fold increase in MIC incubated for 24 hrs in presence of 140 mM Na+ by CLSI based broth dilution method. The format is functional.
Series [22] concerns Staphylococcus aureus. In words: Antibacterial activity against Staphylococcus aureus NCTC10442 assessed as fold increase in MIC incubated for 24 hrs in presence of 1 mM Mg2+ by CLSI based broth dilution method. Type of series: functional.
In series [23] the test system is Pseudomonas aeruginosa. In words: Antibacterial activity against Pseudomonas aeruginosa ATCC 9027 assessed as inhibition of bacterial growth incubated for 24 hrs by CLSI based broth dilution method. Type of series: functional.
In series [24] the test system is Acinetobacter baumannii. In words: Antibacterial activity against Acinetobacter baumannii ATCC 17978 assessed as inhibition of bacterial growth incubated for 24 hrs by CLSI based broth dilution method. The format is functional.
The test system of series [25] is Staphylococcus aureus. The experiment in a line: Antibacterial activity against Staphylococcus aureus ATCC 29213 assessed as fold increase in MIC incubated for 24 hrs in presence of 2.5 mM Ca2+ by CLSI based broth dilution method. The format is functional.
Series [26] relates to Escherichia coli. The experiment in a line: Antibacterial activity against Escherichia coli ATCC 25922 assessed as fold increase in MIC incubated for 24 hrs in presence of 1 mM Mg2+ by CLSI based broth dilution method. The format is functional.
Series [27] deals with Acinetobacter baumannii. In words: Antibacterial activity against Acinetobacter baumannii ATCC 17978 assessed as fold increase in MIC incubated for 24 hrs in presence of 140 mM Na+ by CLSI based broth dilution method. Type of series: functional.
Series [28] relates to Acinetobacter baumannii. In words: Antibacterial activity against Acinetobacter baumannii ATCC 17978 assessed as fold increase in MIC incubated for 24 hrs in presence of 1 mM Mg2+ by CLSI based broth dilution method. Type of series: functional.
Series [29] relates to Acinetobacter baumannii. In words: Antibacterial activity against Acinetobacter baumannii ATCC 17978 assessed as fold increase in MIC incubated for 24 hrs in presence of 2.5 mM Ca2+ by CLSI based broth dilution method. The format is functional.
Series [30] deals with Klebsiella pneumoniae. In words: Antibacterial activity against Klebsiella pneumoniae ATCC 14581 assessed as inhibition of bacterial growth incubated for 24 hrs by CLSI based broth dilution method. The format is functional.
Series [31] deals with Acinetobacter baumannii. The experiment in a line: Antibacterial activity against Acinetobacter baumannii ATCC 17978 assessed as fold increase in MIC incubated for 24 hrs in presence of 4.5 mM K+ by CLSI based broth dilution method. Type of series: functional.
Series [32] has as its system Staphylococcus aureus. In words: Bactericidal activity against Staphylococcus aureus ATCC 29213 assessed as log reduction in viable bacteria at 8 times MIC measured after 8 hrs by time-killing assay. Type of series: functional.
In series [33] the test system is Staphylococcus aureus. In words: Antibacterial activity against Staphylococcus aureus ATCC 29213 in C57BL/6 mouse model of bacterial keratitis assessed as log reduction in number of viable bacterial colonies in infected cornea at 50 mg/ml, TOP administered 4 times a day for 3 consecutive days. The format is functional. To be noted: time 3 day.

Molecules are shown by their SMILES. In brackets after ≈: the same amount, converted by molar mass.

With `COc1c(N2CCNC(C)C2)c(F)cc2c(=O)c(C(=O)O)cn(C3CC3)c12` (stereo not drawn) [GATIFLOXACIN], the “log(activity)” value with Pseudomonas aeruginosa [1] is listed as 3.15.

`C=C[C@@](C)(/C=C/c1ccc(OCCCCN)cc1)CCC=C(C)C`: the MIC in the series with Escherichia coli [2] is 12.5 µg/mL (≈ 38.2 µM); in the series on Staphylococcus aureus [3], 1.56 µg/mL (≈ 4.76 µM); in the series with Staphylococcus aureus [4] it was 0.78 µg/mL (≈ 2.38 µM); with Staphylococcus aureus [5], 1.56 µg/mL (≈ 4.76 µM). In addition, the pKa in [6] worked out at 9.54. For the same compound, the HC50 at 1 h in series [7] came out at 65.9 µg/mL.

In the case of `CC1(C)S[C@@H]2[C@H](NC(=O)[C@H](N)c3ccc(O)cc3)C(=O)N2[C@H]1C(=O)O` [AMOXICILLIN], in the series on Escherichia coli [8], the fold change (FC) is 16. In addition, in the series with Escherichia coli [9], the “log(activity)” value is 1.22.

Take `CCn1cc(C(=O)O)c(=O)c2cc(F)c(N3CCNCC3)cc21`: the fold change (FC) with Staphylococcus aureus [10] turned out to be 32.

On to `C=C[C@@](C)(/C=C/c1ccc(OCCCCNCCN(CCN)CCN)cc1)CCC=C(C)C`, for which the MIC with Acinetobacter baumannii [11] was 6.25 µg/mL (≈ 13.7 µM); with Escherichia coli [2], 3.12 µg/mL (≈ 6.84 µM); in the series with Staphylococcus aureus [3], 0.78 µg/mL (≈ 1.71 µM); in the series on Klebsiella pneumoniae [17], 1.56 µg/mL (≈ 3.42 µM); in the series with Staphylococcus aureus [4], 0.78 µg/mL (≈ 1.71 µM); in the series with Staphylococcus aureus [5], 0.78 µg/mL (≈ 1.71 µM). The values for the MIC in the series with Pseudomonas aeruginosa [23], with Acinetobacter baumannii [24] and in the series on Klebsiella pneumoniae [30] were 3.12 µg/mL (≈ 6.84 µM), 6.25 µg/mL (≈ 13.7 µM) and 1.56 µg/mL (≈ 3.42 µM), respectively. For the same compound, the “fold change (FC)” value in the series with Staphylococcus aureus [12], in the series with Escherichia coli [13], in the series with Escherichia coli [14], with Staphylococcus aureus [15], in the series with Staphylococcus aureus [16] and with Staphylococcus aureus [18] was less than 2 in each case. The “fold change (FC)” value in the series with Escherichia coli [19], with Staphylococcus aureus [20], in the series with Staphylococcus aureus [21], in the series on Staphylococcus aureus [22], with Staphylococcus aureus [25] and with Escherichia coli [26] was less than 2 in each case. Besides, the “fold change (FC)” value with Acinetobacter baumannii [27], in the series with Acinetobacter baumannii [28], with Acinetobacter baumannii [29] and in the series with Acinetobacter baumannii [31] was less than 2 each time. The HC50 at 1 h in series [7] was 32.9 µg/mL.

Turning to `CN[C@H](CC(C)C)C(=O)N[C@H]1C(=O)N[C@@H](CC(N)=O)C(=O)N[C@H]2C(=O)N[C@H]3C(=O)N[C@H](C(=O)N[C@H](C(=O)O)c4cc(O)cc(O)c4-c4cc3ccc4O)[C@H](O)c3ccc(c(Cl)c3)Oc3cc2cc(c3O[C@@H]2O[C@H](CO)[C@@H](O)[C@H](O)[C@H]2O[C@H]2C[C@](C)(N)[C@H](O)[C@H](C)O2)Oc2ccc(cc2Cl)[C@H]1O` [VANCOMYCIN], the MIC with Staphylococcus aureus [3] came to 1.56 µg/mL (≈ 1.08 µM); in the series with Staphylococcus aureus [4] it was 1.56 µg/mL (≈ 1.08 µM); with Staphylococcus aureus [5], 0.78 µg/mL (≈ 0.538 µM). Moreover, the “log(activity)” value came to 1.22 with Staphylococcus aureus [32] and 6.05 in the series on Staphylococcus aureus [33].

For the compound `C=C[C@@](C)(/C=C/c1ccc(OCCCCN2CCSCC2)cc1)CCC=C(C)C`, the MIC with Escherichia coli [2] was greater than 100 µg/mL; in the series with Staphylococcus aureus [3] it was greater than 50 µg/mL; with Staphylococcus aureus [4], greater than 50 µg/mL; in the series on Staphylococcus aureus [5], greater than 50 µg/mL. This compound also displayed a pKa in series [6] of 8.41. The compound further displayed an HC50 at 1 h in [7] greater than 200 µg/mL.

For `C=C[C@@](C)(/C=C/c1ccc(OCCCCNC(=N)N)cc1)CCC=C(C)C`, the MIC in the series on Escherichia coli [2] amounted to 25 µg/mL (≈ 67.6 µM); in the series with Staphylococcus aureus [3], 3.12 µg/mL (≈ 8.46 µM); in the series on Staphylococcus aureus [4], 1.56 µg/mL (≈ 4.22 µM); in the series on Staphylococcus aureus [5], 3.12 µg/mL (≈ 8.46 µM). This compound also registered a pKa in series [6] of 11.4. In series [7], this compound registered a 50% haemolytic concentration (HC50) at 1 h of 75.7 µg/mL.
